According to article PMC6537893 (Biochemistry, 2019):

Target: T1, GoxA (Pseudoalteromonas luteoviolacea, UniProt A0A161XU12)
T1 sequence (A0A161XU12 1-816): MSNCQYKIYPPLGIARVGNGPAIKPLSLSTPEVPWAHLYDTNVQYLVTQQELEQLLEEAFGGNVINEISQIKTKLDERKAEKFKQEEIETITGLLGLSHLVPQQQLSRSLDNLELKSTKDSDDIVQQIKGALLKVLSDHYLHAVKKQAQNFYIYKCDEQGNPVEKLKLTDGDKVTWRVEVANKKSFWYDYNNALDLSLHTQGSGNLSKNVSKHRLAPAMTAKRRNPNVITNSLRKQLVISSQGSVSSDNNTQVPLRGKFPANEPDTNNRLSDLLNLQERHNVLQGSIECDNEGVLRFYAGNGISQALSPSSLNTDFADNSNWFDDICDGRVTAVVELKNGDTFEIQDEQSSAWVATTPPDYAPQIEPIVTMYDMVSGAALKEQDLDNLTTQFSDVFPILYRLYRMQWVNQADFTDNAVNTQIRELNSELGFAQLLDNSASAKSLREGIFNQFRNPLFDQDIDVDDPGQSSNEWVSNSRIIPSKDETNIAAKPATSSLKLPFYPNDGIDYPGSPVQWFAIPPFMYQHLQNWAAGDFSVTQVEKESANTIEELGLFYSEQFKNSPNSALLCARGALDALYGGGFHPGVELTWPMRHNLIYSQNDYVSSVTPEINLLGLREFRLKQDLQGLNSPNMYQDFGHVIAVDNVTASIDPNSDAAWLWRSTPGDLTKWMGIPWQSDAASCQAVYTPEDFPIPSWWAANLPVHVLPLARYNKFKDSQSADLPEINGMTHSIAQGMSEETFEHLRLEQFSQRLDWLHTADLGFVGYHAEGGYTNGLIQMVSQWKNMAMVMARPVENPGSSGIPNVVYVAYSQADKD
Assay: anaerobic absorbance titration at […] nm, fit to allosteric binding equation

## NCC(=O)O [glycine]
  Kd: 103 ± 3 µM
